The results in this text go back to patent publication US20210228685A1, “IMPROVED WEIGHT LOSS THERAPY” (BIOREG LLC, priority 2018, published 2021).

One experiment has as its target T1, ATGL (Mus musculus, UniProt Q8BJ56).
T1 construct: endogenous in cells; host or cells: differentiated SVF adipocytes
T1 sequence (Q8BJ56 1-486): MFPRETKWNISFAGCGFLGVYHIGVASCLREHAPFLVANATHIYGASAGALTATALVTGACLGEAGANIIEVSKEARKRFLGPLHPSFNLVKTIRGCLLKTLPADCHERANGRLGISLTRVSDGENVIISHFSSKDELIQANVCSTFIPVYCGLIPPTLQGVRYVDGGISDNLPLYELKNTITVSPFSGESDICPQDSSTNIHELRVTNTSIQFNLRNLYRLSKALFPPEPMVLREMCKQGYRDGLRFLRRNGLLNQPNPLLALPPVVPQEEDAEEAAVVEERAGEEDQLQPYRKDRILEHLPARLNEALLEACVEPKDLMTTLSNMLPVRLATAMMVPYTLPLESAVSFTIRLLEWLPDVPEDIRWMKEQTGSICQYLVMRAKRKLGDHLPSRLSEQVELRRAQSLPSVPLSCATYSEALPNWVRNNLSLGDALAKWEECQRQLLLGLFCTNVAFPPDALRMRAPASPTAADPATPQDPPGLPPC
Description: Atglistatin inhibition of rLIF- or isoproterenol-induced adipocyte lipolysis. The format is cell-based. Particulars: 1 ng/ml rLIF, increasing concentrations of Atglistatin. How it is done:
Using the tissue culture adipocyte lipolysis assay, we tested both purified recombinant versions of LIF for their ability to stimulate lipolysis. FIG. 1B-D show adipocyte lipolysis and signaling in wild-type and mutant rLIF-treated adipocytes. Differentiated adipocytes in a 12-well format were treated in a final volume of 1.5 ml of medium supplemented with either the indicated concentration of rLIF or rLIF K159A (FIG. 1B-C); or 30 nM Isoprotererenol or 1 ng/ml rLIF in the absence or presence of the indicated concentration of Atglistatin (FIG. 1D). After incubation for 20 h at 37° C., medium was collected and glycerol concentration was measured using the adipocyte lipolysis assay (FIGS. 1B and D) or adipocyte cells were harvested and subjected to IB analysis (FIG. 1C) ([…]) with the indicated antibody. Each data point (FIG. 1B) represents the mean±SEM of the relative change in medium glycerol concentration compared to conditions containing rLIF without Atglistatin (red, 26 μM) or isoproterenol without Atglistatin (black, 83 μM). As shown in (FIG. 1B), in vitro adipocyte lipolysis activity with WT rLIF was increased over background by ˜5-fold compared with mutant rLIF K159A.
In adipocytes, triglycerides are sequentially hydrolyzed by ATGL, HSL, and monoacylglycerol lipase (MGL). […]

For experiment [1], the system named is differentiated SVF adipocytes. Description: adipocyte lipolysis assay (glycerol released into the medium). Format: cell-based. As to conditions: 12-well format, 20 h at 37° C., without Atglistatin; 1 ng/ml rLIF or 30 nM isoproterenol. How it is done:
Conditioned medium from the C26c20 and MC-38 cells was subsequently placed on differentiated adipocytes, and the amount of glycerol released into the medium was quantified. Glycerol release into the medium is a marker for triglyceride lipolysis in adipocytes (27).
SVF preadipocytes were differentiated into adipocytes as follows: On day −3, SVF preadipocytes were set up in 1 ml medium B at a density of 1×10^6 cells/well of 12-well plates or 3.3×10^5 cells/well of 48-well plates. […] After 2 minutes, the amount of absorbance per well was measured using a Tecan microplate reader (absorbance 540 nm). The amount of glycerol concentration released into the medium per condition over background was calculated using the measured absorbance relative to the absorbance of the standardized curve.
To identify the proteins that mediated lipolysis in C26c20 conditioned medium, we carried out a biochemical purification using the lipolysis assay described above using SVF preadipocytes differentiated into adipocytes set up in 12-well plates or 48-well plates. […] After 2 minutes, the amount of absorbance per well was measured using a Tecan microplate reader (absorbance 540 nm). The amount of glycerol concentration released into the medium per condition over background was calculated using the measured absorbance relative to the absorbance of the standardized curve. […]

The structures appear in SMILES notation.

For `CN(C)C(=O)Nc1cccc(-c2ccc(N(C)C)cc2)c1` [Atglistatin], on ATGL, the “inhibition of rLIF-induced lipolysis” value is given as “inhibited”.
With `CC(C)NCC(O)c1ccc(O)c(O)c1` (centres unmarked) [isoproterenol], in experiment [1], the medium glycerol concentration was 83 µM.
